Laboratory results reported in US20160022769A1, “COMPOSTIONS AND METHODS FOR TREATING RETINAL DISEASE” (RETINAL SOLUTIONS LLC, priority 2013, published 2016).

Key:
[1] = biological target: T1, Frizzled receptor subtype 4 (Fz4) (Homo sapiens, UniProt Q9ULV1); details: literature (Xu 2004 and others); cited from earlier work
T1 sequence (Q9ULV1 37-537): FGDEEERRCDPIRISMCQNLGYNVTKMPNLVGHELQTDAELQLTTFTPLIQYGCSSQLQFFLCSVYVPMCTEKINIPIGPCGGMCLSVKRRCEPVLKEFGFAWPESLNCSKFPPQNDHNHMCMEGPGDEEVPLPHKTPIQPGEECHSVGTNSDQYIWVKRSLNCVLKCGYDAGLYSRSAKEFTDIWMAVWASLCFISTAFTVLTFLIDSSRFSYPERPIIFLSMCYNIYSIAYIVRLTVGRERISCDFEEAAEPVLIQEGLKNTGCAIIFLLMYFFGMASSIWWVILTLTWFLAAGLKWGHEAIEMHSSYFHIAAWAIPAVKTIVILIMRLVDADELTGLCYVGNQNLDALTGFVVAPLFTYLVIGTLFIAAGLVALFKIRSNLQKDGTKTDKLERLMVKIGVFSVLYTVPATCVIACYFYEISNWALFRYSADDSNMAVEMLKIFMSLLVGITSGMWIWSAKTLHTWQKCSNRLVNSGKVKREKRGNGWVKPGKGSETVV

[2] = tested on: posterior capillary dropout in the retina; assay: oxygen-induced retinopathy (OIR) mouse model, fluorescein angiography of retinal capillary dropout; assay type: in vivo
From the text: FIG. 2 is a montage of fluorescein angiograms depicting a retinal phenotype as observed in an OIR mouse, which highlights large areas of posterior capillary dropout in the retina.
Capillary drop out is a very serious problem for many retinal vascular diseases. […] See Trese, M. T. et al., Retinal Physician, April 2011.

## Norrin: 131 amino acid secreted protein (NCBI NP_000257.1), ligand of Frizzled-4 that activates Wnt signaling
[1]
  affinity for Fz4: nanomolar affinity
[2]; OIR mouse, intravitreal injection, FIG. 4
  retinal phenotype on fluorescein angiogram: posterior capillary sparing
[2]; murine capillary dropout model, norrin treatment (FIG. 4 vs FIGS. 1-3)
  capillary dropout: reduced or eliminated
